Laboratory results published in US7368453B2, “Quinazolinone compounds with reduced bioaccumulation” (Chiron Corporation, priority 2003, dated 2008).
Read-outs that look alike come from different tables or passages of the source.

Experiment: Tissue half-life (t1/2) and Cmax in plasma, brain, kidney and liver after oral administration to CD-1 mice
Type: in vivo, mouse
Details: male, mouse
Protocol: In vivo studies were conducted to observe the effect of the compounds of the invention in the subject animal. Male CD-1 mice, body weight of 20 grams at arrival, were used in these studies. Mice were given 30 mg/kg of compound in HPMC/Tween solution or suspension via oral gavage. Plasma, brain, and liver samples were collected at time periods of 1, 2, 4, 8, and 24 hours post dosing. One mouse was used per time point. Thus, a total of 5 mice were used for each compound tested. For sample collection, mice were euthanized with CO2. Blood samples were taken by cardiac puncture and kept on ice. Brain and liver samples were collected immediately after bleeding and the samples were kept on dry ice. For calculation of tissue half-lives (t1/2s), the terminal rate constant k was estimated by the absolute value of the slope of a log-linear regression of the terminal phase of the tissue concentration-time profile. The tissue half-life t1/2 is ln(2)/k.
The following table includes t1/2 data for plasma, brain, kidney, and liver obtained after oral administration.
Tissue Half-Life Data for Various Quinazolinone Compounds (PO)

[1] = brain t1/2, 30 mg/kg oral gavage (PO), read-out: Half-Lives (h) Brain (converted)
[2] = liver t1/2, 30 mg/kg oral gavage (PO), read-out: Half-Lives (h) Liver (converted)
[3] = plasma t1/2, 30 mg/kg oral gavage (PO), read-out: Half-Lives (h) Plasma (converted)

half-life [1] [h] | half-life [2] [h] | half-life [3] [h] | half-life (kidney t1/2, 30 mg/kg oral gavage (PO), read-out: Half-Lives (h) Kidney (converted)) [h] | SMILES
3.1 | 2.5 | 2.1 | – | COc1ccc(CCn2c(-c3cccnc3)nc3cc(NC(=N[C@H]4C[C@H]5C[C@@H]([C@@H]4C)C5(C)C)N4CCN[C@@H](C(F)F)C4)ccc3c2=O)c(F)c1 [Example 220, (3R)-3-(difluoromethyl)-N-{3-[2-(2-fluoro-4-methoxyphenyl)ethyl]-4-oxo-2-pyridin-3-yl-3,4-dihydroquinazolin-7-yl}-N′-[(1S,2S,3S,5R)-2,6,6-trimethylbicyclo[3.1.1]hept-3-yl]piperazine-1-carboximidamide]
14 | 6.2 | 5.3 | 11 | COc1ccc(CCn2c(-c3cccnc3)nc3cc(NC(=N[C@H]4C[C@H]5C[C@@H]([C@@H]4C)C5(C)C)N4CCN[C@@H](CF)C4)ccc3c2=O)c(F)c1 [Example 248, (3R)-N-{3-[2-(2-fluoro-4-methoxyphenyl)ethyl]-4-oxo-2-pyridin-3-yl-3,4-dihydroquinazolin-7-yl}-3-(fluoromethyl)-N′-[(1S,2S,3S,5R)-2,6,6-trimethylbicyclo[3.1.1]hept-3-yl]piperazine-1-carboximidamide]
